Laboratory results from patent publication US20100016285A1, “HETEROCYCLIDENE-N-(ARYL) ACETAMIDE DERIVATIVE” (MOCHIDA PHARMACEUTICAL CO., LTD., priority 2007, published 2010).

Tests used:
human TRPV1 = biological target: T1, human TRPV1 (Homo sapiens, UniProt Q8NER1); experiment: Capsaicin-induced Ca influx in transformed CHO cells, FDSS-6000 (b-1), A2 value; format: cell-based; details: concentration shifting the capsaicin concentration-reaction curve two times rightward; CHO cells expressing TRPV1
T1 construct: expressed in transfected cells; host or cells: CHO-K1 cells, pCAGGS vector, clones selected by limiting dilution
Excerpt: (1) Measurement of Capsaicin-Induced Ca Influx in a Transformed CHO Cell Line Expressing Human TRPV1
(a) Establishment of a Transformed CHO Cell Line Expressing Human and Rat TRPV1
Human and rat vanilloid receptor 1 (hTRPV1 and rTRPV1) cDNA was cloned from human brain and rat dorsal root ganglion, respectively. The cloned TRPV1 cDNA was incorporated in a pCAGGS vector. The vector was introduced to a CHO-K1 cell line, thus performing transformation. Clones obtained by limiting dilution were stimulated with capsaicin. Clones with a high responsiveness were selected using an increase in the Ca concentration as an indicator. The selected clones were used for the following experiment.
(b-1) Measurement of Ca Influx using FDSS-6000
The transformed CHO cells expressing human or rat TRPV1 were seeded in a 96-well plate (with black walls and transparent bottoms, manufactured by Greiner) at a density of 40,000 cells per well. The cells were cultured at 37° C. in 5% CO2 atmosphere for one night. A loading solution of FLIPR Calcium 3 assay kit (manufactured by Molecular Devices Corporation) containing 2.5 mmol/L of probenecid was then added to each of the wells in the same amount as the culture medium, and the cells were cultured at 37° C. for 60 minutes. For three minutes after the cells were stimulated with capsaicin (1 nmol/L to 1 μmol/L), the change of the intracellular Ca concentration was measured using FDSS-6000 (λex: 480 nm, λem: […], manufactured by Hamamatsu Photonics K.K.). The integrated values of the increase rate of the intracellular Ca concentration were calculated for a group treated with the compounds of the present invention and a group treated with a vehicle, thus allowing capsaicin concentration-reaction curves to be obtained. A concentration (A2 value) of each of the compounds of the present invention, at which the capsaicin concentration-reaction curve obtained when the cells were treated with the vehicle was shifted two times rightward, was calculated. The inhibitory effects of the test compounds were compared using this value as an indicator.

[1] = Effects on rectal temperature (8-1), oral administration to rats; format: in vivo, rat; details: oral single doses of 3, 10 and 30 mg/kg; 30, 60 and 120 minutes; maximum absolute difference vs vehicle
Protocol: (8-1) Effects on Rectal Temperature
A test compound was orally administered to rats at single doses of 3, 10 and 30 mg/kg. Then rectal temperature was measured 30, 60 and 120 minutes after administration.
Differences of the mean value between a group treated with test substance and a vehicle-treated group were calculated at all measuring points and, based on the maximum absolute value of differences, changes in rectal temperature were divided into the following three categories:
−: the maximum value was less than 0.5 degree Celsius +: the maximum value was more than 0.5 degree but less than 1.0 degree Celsius ++: the maximum value was more than 1.0 degree Celsius

T1 sequence (Q8NER1 whole entry): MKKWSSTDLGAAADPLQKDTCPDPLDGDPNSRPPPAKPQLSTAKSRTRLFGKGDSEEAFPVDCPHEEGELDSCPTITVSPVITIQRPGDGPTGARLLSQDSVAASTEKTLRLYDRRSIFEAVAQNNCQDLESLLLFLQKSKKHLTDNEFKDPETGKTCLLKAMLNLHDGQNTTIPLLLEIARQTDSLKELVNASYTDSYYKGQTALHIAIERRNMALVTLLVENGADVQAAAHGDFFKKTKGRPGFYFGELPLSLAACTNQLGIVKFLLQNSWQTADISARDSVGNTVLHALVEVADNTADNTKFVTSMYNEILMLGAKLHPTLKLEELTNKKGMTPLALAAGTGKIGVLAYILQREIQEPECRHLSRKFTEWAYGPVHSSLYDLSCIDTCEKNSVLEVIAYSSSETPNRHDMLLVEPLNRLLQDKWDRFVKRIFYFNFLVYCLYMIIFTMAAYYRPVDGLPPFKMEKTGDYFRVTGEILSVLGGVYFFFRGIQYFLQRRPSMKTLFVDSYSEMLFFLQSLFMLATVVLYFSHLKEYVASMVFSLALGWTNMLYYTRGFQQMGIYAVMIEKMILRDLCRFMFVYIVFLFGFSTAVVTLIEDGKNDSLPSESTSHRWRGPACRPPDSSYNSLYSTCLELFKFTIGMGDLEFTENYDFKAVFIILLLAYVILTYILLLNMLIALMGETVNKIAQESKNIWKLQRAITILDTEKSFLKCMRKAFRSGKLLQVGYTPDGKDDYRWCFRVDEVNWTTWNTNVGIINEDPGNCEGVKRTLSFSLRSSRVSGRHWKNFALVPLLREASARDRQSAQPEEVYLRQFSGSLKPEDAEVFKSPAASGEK

| A2 value (human TRPV1) | SMILES | Change in rectal temperature in rats [1] |
| --- | --- | --- |
| A (A2 value of less than 100 nM) | O=C(/C=C1\CCCOc2cc(C(F)(F)F)ccc21)Nc1ccc2c(c1)NC(=O)C(N1CCOCC1)C2 (single isomer, unassigned) [EXAMPLE 35, (E)-2-(8-trifluoromethyl-3,4-dihydrobenzo[b]oxepin-5(2H)-ylidene)-N-(3-(4-morpholinyl)-3,4-dihydro-2(1H)-quinolinon-7-yl)acetamide] | − (the maximum value was less than 0.5 degree Celsius) |
| A (A2 value of less than 100 nM) | O=C(/C=C1\CCCOc2cc(C(F)(F)F)ccc21)Nc1ccc2c(c1)NC(=O)NC2 [EXAMPLE 13, (E)-2-(8-trifluoromethyl-3,4-dihydrobenzo[b]oxepin-5(2H)-ylidene)-N-(3,4-dihydro-1H-quinazolin-2-on-7-yl)acetamide] | − (the maximum value was less than 0.5 degree Celsius) |
| A (A2 value of less than 100 nM) | O=C(/C=C1\CCCOc2cc(C(F)(F)F)ccc21)Nc1ccc2c(c1)NC(=O)N(CCO)C2 [EXAMPLE 15, (E)-2-(8-trifluoromethyl-3,4-dihydrobenzo[b]oxepin-5(2H)-ylidene)-N-(3-(2-hydroxyethyl)-3,4-dihydro-2(1H)-quinazolinon-7-yl)acetamide] | − (the maximum value was less than 0.5 degree Celsius) |
| A (A2 value of less than 100 nM) | O=C(/C=C1\CCOc2cc(C(F)(F)F)ccc21)Nc1ccc2c(c1)NC(=O)CC2 [EXAMPLE 23, (E)-2-(7-trifluoromethylchroman-4-ylidene)-N-(3,4-dihydroquinolin-2(1H)-on-7-yl)acetamide] | − (the maximum value was less than 0.5 degree Celsius) |
| A (A2 value of less than 100 nM) | CC1(C)N/C(=C\C(=O)Nc2ccc3c(c2)NC(=O)CC3)c2ccc(C(F)(F)F)cc2O1 [EXAMPLE 26, (Z)-2-(6-trifluoromethyl-3,3-dimethyl-4-oxa-3,4-dihydroisoquinolin-1(2H)-ylidene)-N-(3,4-dihydroquinolin-2(1H)-on-7-yl)acetamide] | − (the maximum value was less than 0.5 degree Celsius) |
| B (A2 value of 100 nM or more) | O=C(/C=C1\CCCOc2cc(C(F)(F)F)ccc21)Nc1ccc2c(c1)NC(=O)C[S+]2[O-] (stereo not shown) [Example 5, (E)-2-(B-trifluoromethyl-3,4-dihydrobenzo[b]oxepin-5(2H)-ylidene)-N-(1-oxo-2H-benzo[1,4]thiazin-3(4H)-on-6-yl)acetamide] | – |
| A (A2 value of less than 100 nM) | O=C(/C=C1\CCCOc2cc(C(F)(F)F)ccc21)Nc1ccc2c(c1)NC(=O)CN2 [Example 7, (E)-2-(8-trifluoromethyl-3,4-dihydrobenzo[b]oxepin-5(2H)-ylidene)-N-(3,4-dihydro-2(1H)-quinoxalinon-7-yl)acetamide] | – |
| A (A2 value of less than 100 nM) | O=C(/C=C1\CCCOc2cc(C(F)(F)F)ccc21)Nc1ccc2cc(N3CCOCC3)c(=O)[nH]c2c1 [Example 58, (E)-2-(8-trifluoromethyl-3,4-dihydrobenzo[b]oxepin-5(2H)-ylidene)-N-(3-(4-morpholinyl)-2(1H)-quinolinon-7-yl)acetamide] | – |
| A (A2 value of less than 100 nM) | O=C(/C=C1\CCCOc2cc(C(F)(F)F)ccc21)Nc1ccc2c(c1)NS(=O)(=O)CC2 [Example 59, (E)-2-(8-trifluoromethyl-3,4-dihydrobenzo[b]oxepin-5(2H)-ylidene)-N-(2,2-dioxo-3,4-dihydro-(1H)-2,1-benzothiazin-7-yl)acetamide] | – |
| A (A2 value of less than 100 nM) | O=C(/C=C1\CCCOc2cc(C(F)(F)F)ccc21)Nc1cccc2c1CCC(=O)N2 [compound 18, (E)-2-(8-trifluoromethyl-3,4-dihydrobenzo[b]oxepin-5(2H)-ylidene)-N-(3,4-dihydro-2(1H)-quinolinon-5-yl)acetamide] | – |

More lines, now with the values behind:

| SMILES | A2 value (human TRPV1) | Change in rectal temperature in rats [1] |
| --- | --- | --- |
| CC1(C)C/C(=C\C(=O)Nc2ccc3c(c2)NC(=O)C(N2CCOCC2)C3)c2ccc(C(F)(F)F)cc2O1 (single isomer, unassigned) [Example 213, (E)-2-(7-trifluoromethyl-2,2-dimethylchroman-4-ylidene)-N-(3-(4-morpholinyl)-3,4-dihydro-2(1H)-quinolinon-7-yl)acetamide] | – | − (the maximum value was less than 0.5 degree Celsius) |
| CC1(C)Nc2ccc(NC(=O)/C=C3\CCCOc4cc(C(F)(F)F)ccc43)cc2NC1=O [EXAMPLE 10, (E)-2-(8-trifluoromethyl-3,4-dihydrobenzo[b]oxepin-5(2H)-ylidene)-N-(3,3-dimethyl-3,4-dihydro-2(1H)-quinoxalinon-7-yl)acetamide] | A (A2 value of less than 100 nM) | + (the maximum value was more than 0.5 degree but less than 1.0 degree Celsius) |
| CN1Cc2ccc(NC(=O)/C=C3\CCCOc4cc(C(F)(F)F)ccc43)cc2NC1=O [EXAMPLE 14, (E)-2-(8-trifluoromethyl-3,4-dihydrobenzo[b]oxepin-5(2H)-ylidene)-N-(3-methyl-3,4-dihydro-2(1H)-quinazolinon-7-yl)acetamide] | – | − (the maximum value was less than 0.5 degree Celsius) |
| O=C(/C=C1\CCCOc2cc(C(F)(F)F)ccc21)Nc1ccc2c(c1)NC(=O)C(N1CCOCC1)C2 (stereo not shown) [EXAMPLE 30, (E)-2-(8-trifluoromethyl-3,4-dihydrobenzo[b]oxepin-5(2H)-ylidene)-N-(3-(4-morpholinyl)-3,4-dihydro-2(1H)-quinolinon-7-yl)acetamide] | – | − (the maximum value was less than 0.5 degree Celsius) |
| O=C(/C=C1\CCCOc2cc(C(F)(F)F)ccc21)Nc1ccc2cc(CO)c(=O)[nH]c2c1 [Example 93, (E)-2-(8-trifluoromethyl-3,4-dihydrobenzo[b]oxepin-5(2H)-ylidene)-N-(3-hydroxymethyl-2(1H)-quinolinon-7-yl)acetamide] | – | − (the maximum value was less than 0.5 degree Celsius) |
| CC1(C)C/C(=C\C(=O)Nc2ccc3c(c2)NC(=O)C3(C)C)c2ccc(C(F)(F)F)cc2O1 [Example 109, (E)-2-(7-trifluoromethyl-2,2-dimethylchroman-4-ylidene)-N-(3,3-dimethyl-2(1H)-indolinon-6-yl)acetamide] | – | − (the maximum value was less than 0.5 degree Celsius) |
| CC1(C)C(=O)Nc2cc(NC(=O)/C=C3\CC4(CCC4)Oc4cc(C(F)(F)F)ccc43)ccc21 [Example 110, (E)-2-(7-trifluoromethyl-spiro[chroman-2,1′-cyclobutane]-4-ylidene)-N-(3,3-dimethyl-2(1H)-indolinon-6-yl)acetamide] | – | − (the maximum value was less than 0.5 degree Celsius) |
| CN1C(=O)NCc2ccc(NC(=O)/C=C3\CCOc4cc(C(F)(F)F)ccc43)cc21 [Example 151, (E)-2-(7-trifluoromethyl-chroman-4-yliden)-N-(3,4-dihydro-1-methyl-2(1H)-quinazolinon-7-yl)acetamide] | – | − (the maximum value was less than 0.5 degree Celsius) |
| CN1c2cc(NC(=O)/C=C3\CC4(CCC4)Oc4cc(C(F)(F)F)ccc43)ccc2CCS1(=O)=O [Example 200, (E)-2-(7-trifluoromethyl-spiro[chroman-2,1′-cyclobutane]-4-ylidene)-N-(3,4-dihydro-2,2-dioxo-1-methyl-1H-2,1-benzothiazin-7-yl)acetamide] | – | − (the maximum value was less than 0.5 degree Celsius) |
